In brackets after ≈: the same amount, converted by molar mass.

For the data set the following is noted: buffer; pH 7.4; 200.0 µM.
For `COc1ccccc1NCc1cc(=O)oc2c(C)c(O)ccc12`, the solubility (kinetic) (commonly the concentration staying in solution when a stock, usually in DMSO, is diluted into the medium) worked out at 0.0044 mg/mL (≈ 14.1 µM).

`CCOC(=O)c1c(/N=C/C2=C(O)CCCC2=O)sc2c1CCCC2`: the solubility (kinetic) came out at 0.0036 mg/mL (≈ 10.4 µM).

Regarding `CC1(C)CC(=O)C=C(N2CCOCC2)C1`, the kinetic solubility is greater than 0.0314 mg/mL.

Compound `Nc1nc2c(s1)COc1ccccc1-2` came in with a kinetic solubility greater than 0.0306 mg/mL.

With `Cn1cnc2c1c(=O)n(Cc1ccc(Cl)cc1Cl)c(=O)n2C`, the solubility (kinetic) is greater than 0.0509 mg/mL.

`CSc1ccccc1C(=O)NCc1ccccc1C` registered a kinetic solubility greater than 0.0407 mg/mL.

Consider `CCn1c(=O)c2ccccc2n(Cc2ccc([N+](=O)[O-])cc2)c1=O`, for which the solubility (kinetic) is 0.0056 mg/mL (≈ 17.2 µM).

For the compound `Cc1cc2c(cc1C)C(c1ccsc1)CC(=O)N2` (stereo unspecified), the kinetic solubility turned out to be 0.0051 mg/mL (≈ 19.8 µM).

In turn, `Cc1ccnc(SCc2ccc(C(=O)O)cc2)n1` had a kinetic solubility greater than 0.039 mg/mL.

`Cc1ccc(CNC(=O)C(CC(C)C)OC(=O)c2ccco2)cc1` (stereo unspecified) returned a kinetic solubility of 0.0112 mg/mL (≈ 34 µM).

For the compound `Cc1ccc(CNC(=O)CCc2cn(C)c3ccccc23)cc1`, the solubility (kinetic) was determined as 0.0051 mg/mL (≈ 16.6 µM).

In turn, `CCn1cc(C(=O)Nc2cccc(C)c2)c(=O)c2ccc(C)nc21` yielded a solubility (kinetic) of less than 0.0002 mg/mL.

For `COc1ccc(C2CC(=O)C(C=NCCCO)=C(O)C2)cc1` (stereo unspecified), the kinetic solubility was greater than 0.0455 mg/mL.

As for `Cc1ccc(NC(=O)CC2SCCNC2=O)cc1[N+](=O)[O-]` (stereo unspecified), the solubility (kinetic) was 0.0362 mg/mL (≈ 117 µM).

The compound `CS(=O)(=O)c1ccc(C(=O)N2CCc3ccccc3C2)cc1` showed a solubility (kinetic) greater than 0.0473 mg/mL.

In turn, `CCOC(=O)c1sc(=S)n(CC)c1NC(=O)c1ccccc1C` yielded a kinetic solubility of 0.0034 mg/mL (≈ 9.7 µM).

With `O=C(Nc1cccc2ccccc12)NC(Cc1ccccc1)C(=O)O` (stereo unspecified), the solubility (kinetic) was greater than 0.0502 mg/mL.

For `CC(C)[C@H](NC(=O)c1ccccc1F)C(=O)NC1CCCCC1`, the solubility (kinetic) is greater than 0.0481 mg/mL.

`CC(=NCC1CCCO1)c1c(O)n(-c2ccccc2C)c(=O)[nH]c1=O` (stereo unspecified): the kinetic solubility was greater than 0.0515 mg/mL.

With `C=CCn1c(C)c(C(=O)OCC)c2cc(O)c3ccccc3c21`, the kinetic solubility is less than 0.0007 mg/mL.

The compound `O=C(Nc1cccc([N+](=O)[O-])c1)c1ccc2nsnc2c1` yielded a kinetic solubility of 0.0019 mg/mL (≈ 6.33 µM).

`Cc1ccc(CC(=O)Nc2ccc(S(=O)(=O)N3CCOCC3)cc2)cc1` showed a kinetic solubility of 0.0075 mg/mL (≈ 20 µM). This solubility kinetic lies about 3.9-fold higher than the previous one.

In the case of `Cc1cc2c([nH]c3ccccc32)c(C)[nH+]1.[Cl-]`, the kinetic solubility worked out at 0.0262 mg/mL. This solubility kinetic is about 3.5-fold higher than that of the compound before.

In turn, `CC(C(=O)N1CCCCCC1)N(c1ccc(Cl)cc1)S(C)(=O)=O` (stereo unspecified) showed a solubility (kinetic) of 0.0468 mg/mL (≈ 130 µM).

`Cl.Clc1ccc2[nH]c3c(c2c1)CCNC3` gave a solubility (kinetic) of 0.0324 mg/mL.

For the compound `COc1ccc2cc(C(=O)NCc3ccccc3)c(=O)oc2c1`, the solubility (kinetic) is less than 0.0007 mg/mL.

Regarding `CC(C)Cn1c(=S)[nH]c2cc(Cl)ccc21`, the solubility (kinetic) was determined as 0.0185 mg/mL (≈ 76.8 µM).

Turning to `CCCCc1ccc(NC(=O)c2cnccn2)cc1`, the solubility (kinetic) came to 0.004 mg/mL (≈ 15.7 µM).

`Br.Fc1cc(Cl)ccc1NC1=NCCCCC1` gave a kinetic solubility greater than 0.0482 mg/mL.

Consider `N#Cc1ccc(S(=O)(=O)NC2CCCCNC2=O)cc1` (stereo unspecified), for which the solubility (kinetic) was greater than 0.044 mg/mL.

The compound `Cc1cccc(NS(=O)(=O)c2ccc(C)c(C(=O)NCc3cccnc3)c2)c1` returned a kinetic solubility greater than 0.0593 mg/mL.

The compound `C=CCNc1nc(N)c([N+](=O)[O-])c(N2CCCCCC2)n1` gave a solubility (kinetic) of 0.0404 mg/mL (≈ 138 µM).

`CCN(Cc1ccccc1)C1CCN(Cc2ccccc2)CC1` came in with a solubility (kinetic) of 0.0342 mg/mL (≈ 111 µM). This solubility kinetic and that of the compound before are within 1.5-fold of each other.

The compound `CCCn1c(SCC(=O)N(CC)CC)nnc1-c1ccncc1` gave a solubility (kinetic) greater than 0.05 mg/mL.

In the case of `Cc1ccc(C(=O)NCCCNC(=O)Cc2ccccc2)cn1`, the kinetic solubility is greater than 0.0467 mg/mL.

As to `CC1(C)C[C@@H]2C[C@@](C)(CN2C(=O)c2ccccc2)C1`, the kinetic solubility was determined as 0.0365 mg/mL (≈ 142 µM).

Regarding `COc1ccc2c(c1OC)C(=O)N(c1ccc(O)cc1)C2`, the solubility (kinetic) is 0.0063 mg/mL (≈ 22.1 µM).

For the compound `Cc1ccc(S(=O)(=O)NC2CC2)cc1`, the kinetic solubility is greater than 0.0317 mg/mL.

For `O=C(COC(=O)Cc1c(F)cccc1Cl)NC(=O)Nc1ccccc1F`, the solubility (kinetic) was 0.0019 mg/mL (≈ 4.96 µM).

As to `CC(C)c1ccc(NC(=O)COC(=O)C2CC3C=CC2C3)cc1` (stereo unspecified), the kinetic solubility was determined as 0.0221 mg/mL (≈ 70.5 µM). Against the preceding compound, the solubility kinetic is about 12-fold higher.

`CC(Sc1ccccn1)C(=O)Nc1ccc2c(c1)OCO2` (stereo unspecified) gave a kinetic solubility of 0.039 mg/mL (≈ 129 µM). Against the preceding compound, the solubility kinetic is about 1.8-fold higher.

Turning to `CCOC(=O)c1c(C)[nH]c(C(=O)N2CCC(C(=O)OCC)CC2)c1C`, the kinetic solubility was greater than 0.0526 mg/mL.

Turning to `CCCN1C(=O)c2ccccc2NC1c1ccc(Cl)cc1` (stereo unspecified), the solubility (kinetic) is 0.0032 mg/mL (≈ 10.6 µM).

The compound `S=c1[nH]nc(Nc2ccccc2)s1` registered a kinetic solubility greater than 0.0314 mg/mL.

Turning to `CCC(C)NC(=O)C1c2ccccc2C(=O)N1Cc1ccc(F)cc1` (stereo unspecified), the kinetic solubility was greater than 0.0511 mg/mL.

Consider `CC(C)OCCCNC(=O)Nc1cccc2ccccc12`, for which the solubility (kinetic) is greater than 0.043 mg/mL.

As for `CCOC(=O)C1CCN(C(=O)c2cc3cc(Cl)ccc3[nH]2)CC1`, the kinetic solubility was 0.019 mg/mL (≈ 56.7 µM).

With `CSCCC(NC(=O)c1ccccc1)C(=O)OCC(=O)NCc1ccco1` (stereo unspecified), the kinetic solubility was greater than 0.0586 mg/mL.

Compound `O=C(O)c1ccc(Cl)c(NCc2cccs2)c1` came in with a kinetic solubility of 0.0348 mg/mL (≈ 130 µM).

`Cn1c(N)c(C(=O)COC(=O)Cc2ccccc2F)c(=O)n(C)c1=O`: the kinetic solubility is 0.0242 mg/mL (≈ 69.3 µM). The solubility kinetic values of the last two compounds are within 1.5-fold of each other.

As to `CCS(=O)(=O)N1CCN(CC(=O)NC2CCCCC2)CC1.Cl`, the solubility (kinetic) is greater than 0.0531 mg/mL.
